According to article PMC6874179, “Development of Macrocycle Kinase Inhibitors for ALK2 Using Fibrodysplasia Ossificans Progressiva‐Derived Endothelial Cells” (JBMR Plus, 2019):

Key:
[1] = target: T1, PAK3 (Homo sapiens, UniProt O75914); experiment: Proqinase Kinase profiling; assay type: biochemical; conditions: read-out: % inhibition at 100nM
T1 construct: purchased DiscoverX

[2] = target: T2, SRPK1 (Homo sapiens, UniProt Q96SB4); experiment: Proqinase Kinase profiling; assay type: biochemical; conditions: read-out: % inhibition at 100nM
T2 construct: purchased DiscoverX

[3] = target: T3, TLK2 (Homo sapiens, UniProt Q86UE8); experiment: Proqinase Kinase profiling; assay type: biochemical; conditions: read-out: % inhibition at 100nM
T3 construct: purchased DiscoverX
T3 sequence (Q86UE8 whole entry): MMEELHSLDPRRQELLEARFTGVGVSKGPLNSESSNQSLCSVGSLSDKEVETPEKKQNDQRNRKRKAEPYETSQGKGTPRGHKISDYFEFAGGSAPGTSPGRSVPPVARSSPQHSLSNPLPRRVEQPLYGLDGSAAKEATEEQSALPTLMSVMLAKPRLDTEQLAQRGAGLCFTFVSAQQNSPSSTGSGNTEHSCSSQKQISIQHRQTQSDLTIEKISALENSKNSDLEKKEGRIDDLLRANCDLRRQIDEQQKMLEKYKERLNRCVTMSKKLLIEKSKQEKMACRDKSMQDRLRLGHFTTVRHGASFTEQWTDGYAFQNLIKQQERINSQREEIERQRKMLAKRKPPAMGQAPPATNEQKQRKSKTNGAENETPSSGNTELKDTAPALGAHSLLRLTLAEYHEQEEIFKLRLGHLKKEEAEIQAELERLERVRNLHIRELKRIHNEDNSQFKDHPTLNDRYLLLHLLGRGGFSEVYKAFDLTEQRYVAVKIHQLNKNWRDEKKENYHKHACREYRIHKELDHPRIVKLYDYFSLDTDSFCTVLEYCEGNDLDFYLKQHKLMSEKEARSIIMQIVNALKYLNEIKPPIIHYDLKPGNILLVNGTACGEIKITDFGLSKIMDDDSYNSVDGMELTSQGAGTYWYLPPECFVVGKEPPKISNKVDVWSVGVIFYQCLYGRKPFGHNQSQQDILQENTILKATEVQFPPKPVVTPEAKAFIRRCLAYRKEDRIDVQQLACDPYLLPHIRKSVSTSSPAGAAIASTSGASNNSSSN

[4] = target: T4, RPS6KA6 (Homo sapiens, UniProt Q9UK32); experiment: Proqinase Kinase profiling; assay type: biochemical; conditions: read-out: % inhibition at 100nM
T4 construct: purchased DiscoverX

[5] = target: T5, MARK4 (Homo sapiens, UniProt Q96L34); experiment: Proqinase Kinase profiling; assay type: biochemical; conditions: read-out: % inhibition at 100nM
T5 construct: purchased DiscoverX

[6] = target: T6, NTRK2 (Homo sapiens, UniProt Q16620); experiment: Proqinase Kinase profiling; assay type: biochemical; conditions: read-out: % inhibition at 100nM
T6 construct: purchased DiscoverX

[7] = target: T7, TEC (Homo sapiens, UniProt P42680); experiment: Proqinase Kinase profiling; assay type: biochemical; conditions: read-out: % inhibition at 100nM
T7 construct: purchased DiscoverX

[8] = target: T8, FLT3_D835Y (Homo sapiens, UniProt P36888, D835Y); experiment: Proqinase Kinase profiling; assay type: biochemical; conditions: read-out: % inhibition at 100nM
T8 construct: purchased DiscoverX

[9] = target: T9, AURKA (Homo sapiens, UniProt O14965); experiment: Proqinase Kinase profiling; assay type: biochemical; conditions: read-out: % inhibition at 100nM
T9 construct: purchased DiscoverX
T9 sequence (O14965 whole entry): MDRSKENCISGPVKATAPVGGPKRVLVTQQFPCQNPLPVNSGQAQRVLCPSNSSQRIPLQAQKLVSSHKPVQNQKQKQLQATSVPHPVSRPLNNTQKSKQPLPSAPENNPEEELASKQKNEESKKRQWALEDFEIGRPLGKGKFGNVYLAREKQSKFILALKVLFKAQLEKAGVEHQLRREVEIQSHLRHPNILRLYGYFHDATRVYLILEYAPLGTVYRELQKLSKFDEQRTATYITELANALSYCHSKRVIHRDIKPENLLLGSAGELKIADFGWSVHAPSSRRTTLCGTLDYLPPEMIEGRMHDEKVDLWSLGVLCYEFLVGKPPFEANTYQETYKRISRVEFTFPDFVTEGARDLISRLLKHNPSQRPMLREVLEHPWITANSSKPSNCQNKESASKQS

[10] = target: T10, FGFR3_K650E (Homo sapiens, UniProt P22607, K650E); experiment: Proqinase Kinase profiling; assay type: biochemical; conditions: read-out: % inhibition at 100nM
T10 construct: purchased DiscoverX
T10 sequence (P22607 23-806 K650E): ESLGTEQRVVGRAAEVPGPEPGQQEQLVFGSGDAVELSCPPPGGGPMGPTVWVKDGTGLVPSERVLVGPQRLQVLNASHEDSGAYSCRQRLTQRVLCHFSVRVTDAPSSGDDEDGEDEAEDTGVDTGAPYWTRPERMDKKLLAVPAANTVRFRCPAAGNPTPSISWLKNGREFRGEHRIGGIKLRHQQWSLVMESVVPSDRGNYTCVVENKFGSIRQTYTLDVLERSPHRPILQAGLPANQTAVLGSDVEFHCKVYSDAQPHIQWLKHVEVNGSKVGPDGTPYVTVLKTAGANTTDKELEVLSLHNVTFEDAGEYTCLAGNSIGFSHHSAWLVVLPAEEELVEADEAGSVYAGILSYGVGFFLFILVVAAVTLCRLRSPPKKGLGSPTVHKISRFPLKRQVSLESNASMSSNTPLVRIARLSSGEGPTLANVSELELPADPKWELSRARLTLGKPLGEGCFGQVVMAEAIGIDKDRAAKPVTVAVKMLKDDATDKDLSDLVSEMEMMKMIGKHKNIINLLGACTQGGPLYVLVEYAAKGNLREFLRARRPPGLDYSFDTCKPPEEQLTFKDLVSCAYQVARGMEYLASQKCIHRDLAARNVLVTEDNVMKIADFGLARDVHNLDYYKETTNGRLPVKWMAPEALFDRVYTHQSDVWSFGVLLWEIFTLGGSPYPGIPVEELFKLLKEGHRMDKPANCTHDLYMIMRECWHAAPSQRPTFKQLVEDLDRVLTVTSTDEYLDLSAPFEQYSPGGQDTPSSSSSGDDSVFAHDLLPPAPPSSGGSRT

[11] = target: T11, MAP3K8 (Homo sapiens, UniProt P41279); experiment: Proqinase Kinase profiling; assay type: biochemical; conditions: read-out: % inhibition at 100nM
T11 construct: purchased DiscoverX

[12] = target: T12, LRRK2_I2020T (Homo sapiens, UniProt Q5S007, I2020T); experiment: Proqinase Kinase profiling; assay type: biochemical; conditions: read-out: % inhibition at 100nM
T12 construct: purchased DiscoverX

[13] = target: T13, MAPK9 (Homo sapiens, UniProt P45984); experiment: Proqinase Kinase profiling; assay type: biochemical; conditions: read-out: % inhibition at 100nM
T13 construct: purchased DiscoverX

[14] = target: T14, LYN (Homo sapiens, UniProt P07948); experiment: Proqinase Kinase profiling; assay type: biochemical; conditions: read-out: % inhibition at 100nM
T14 construct: purchased DiscoverX
T14 sequence (P07948 whole entry): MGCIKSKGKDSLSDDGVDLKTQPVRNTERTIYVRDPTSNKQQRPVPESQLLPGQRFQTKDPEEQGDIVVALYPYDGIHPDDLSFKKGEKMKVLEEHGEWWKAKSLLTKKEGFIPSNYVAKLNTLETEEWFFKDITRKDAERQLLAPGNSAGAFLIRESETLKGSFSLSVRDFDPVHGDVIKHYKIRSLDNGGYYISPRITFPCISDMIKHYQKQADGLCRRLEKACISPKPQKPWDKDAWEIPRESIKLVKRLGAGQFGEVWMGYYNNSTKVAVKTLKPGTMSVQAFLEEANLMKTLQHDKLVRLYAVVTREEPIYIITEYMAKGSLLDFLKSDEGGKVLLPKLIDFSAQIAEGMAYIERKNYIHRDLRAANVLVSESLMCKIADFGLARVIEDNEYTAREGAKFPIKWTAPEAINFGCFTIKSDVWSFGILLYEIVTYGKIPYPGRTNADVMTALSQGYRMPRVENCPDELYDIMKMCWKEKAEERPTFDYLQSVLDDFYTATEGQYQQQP

[15] = target: T15, MAPK1 (Homo sapiens, UniProt P28482); experiment: Proqinase Kinase profiling; assay type: biochemical; conditions: read-out: % inhibition at 100nM
T15 construct: purchased DiscoverX

[16] = target: T16, CHEK2 (Homo sapiens, UniProt O96017); experiment: Proqinase Kinase profiling; assay type: biochemical; conditions: read-out: % inhibition at 100nM
T16 construct: purchased DiscoverX

[17] = target: T17, PKN1 (Homo sapiens, UniProt Q16512); experiment: Proqinase Kinase profiling; assay type: biochemical; conditions: read-out: % inhibition at 100nM
T17 construct: purchased DiscoverX

[18] = target: T18, PDK1 (Homo sapiens, UniProt O15530); experiment: Proqinase Kinase profiling; assay type: biochemical; conditions: read-out: % inhibition at 100nM
T18 construct: purchased DiscoverX

[19] = target: T19, IKBKB (Homo sapiens, UniProt O14920); experiment: Proqinase Kinase profiling; assay type: biochemical; conditions: read-out: % inhibition at 100nM
T19 construct: purchased DiscoverX

[20] = target: T20, ALK_F1174L (Homo sapiens, UniProt Q9UM73, F1174L); experiment: Proqinase Kinase profiling; assay type: biochemical; conditions: read-out: % inhibition at 100nM
T20 construct: purchased DiscoverX
T20 sequence (Q9UM73 19-1620 F1174L): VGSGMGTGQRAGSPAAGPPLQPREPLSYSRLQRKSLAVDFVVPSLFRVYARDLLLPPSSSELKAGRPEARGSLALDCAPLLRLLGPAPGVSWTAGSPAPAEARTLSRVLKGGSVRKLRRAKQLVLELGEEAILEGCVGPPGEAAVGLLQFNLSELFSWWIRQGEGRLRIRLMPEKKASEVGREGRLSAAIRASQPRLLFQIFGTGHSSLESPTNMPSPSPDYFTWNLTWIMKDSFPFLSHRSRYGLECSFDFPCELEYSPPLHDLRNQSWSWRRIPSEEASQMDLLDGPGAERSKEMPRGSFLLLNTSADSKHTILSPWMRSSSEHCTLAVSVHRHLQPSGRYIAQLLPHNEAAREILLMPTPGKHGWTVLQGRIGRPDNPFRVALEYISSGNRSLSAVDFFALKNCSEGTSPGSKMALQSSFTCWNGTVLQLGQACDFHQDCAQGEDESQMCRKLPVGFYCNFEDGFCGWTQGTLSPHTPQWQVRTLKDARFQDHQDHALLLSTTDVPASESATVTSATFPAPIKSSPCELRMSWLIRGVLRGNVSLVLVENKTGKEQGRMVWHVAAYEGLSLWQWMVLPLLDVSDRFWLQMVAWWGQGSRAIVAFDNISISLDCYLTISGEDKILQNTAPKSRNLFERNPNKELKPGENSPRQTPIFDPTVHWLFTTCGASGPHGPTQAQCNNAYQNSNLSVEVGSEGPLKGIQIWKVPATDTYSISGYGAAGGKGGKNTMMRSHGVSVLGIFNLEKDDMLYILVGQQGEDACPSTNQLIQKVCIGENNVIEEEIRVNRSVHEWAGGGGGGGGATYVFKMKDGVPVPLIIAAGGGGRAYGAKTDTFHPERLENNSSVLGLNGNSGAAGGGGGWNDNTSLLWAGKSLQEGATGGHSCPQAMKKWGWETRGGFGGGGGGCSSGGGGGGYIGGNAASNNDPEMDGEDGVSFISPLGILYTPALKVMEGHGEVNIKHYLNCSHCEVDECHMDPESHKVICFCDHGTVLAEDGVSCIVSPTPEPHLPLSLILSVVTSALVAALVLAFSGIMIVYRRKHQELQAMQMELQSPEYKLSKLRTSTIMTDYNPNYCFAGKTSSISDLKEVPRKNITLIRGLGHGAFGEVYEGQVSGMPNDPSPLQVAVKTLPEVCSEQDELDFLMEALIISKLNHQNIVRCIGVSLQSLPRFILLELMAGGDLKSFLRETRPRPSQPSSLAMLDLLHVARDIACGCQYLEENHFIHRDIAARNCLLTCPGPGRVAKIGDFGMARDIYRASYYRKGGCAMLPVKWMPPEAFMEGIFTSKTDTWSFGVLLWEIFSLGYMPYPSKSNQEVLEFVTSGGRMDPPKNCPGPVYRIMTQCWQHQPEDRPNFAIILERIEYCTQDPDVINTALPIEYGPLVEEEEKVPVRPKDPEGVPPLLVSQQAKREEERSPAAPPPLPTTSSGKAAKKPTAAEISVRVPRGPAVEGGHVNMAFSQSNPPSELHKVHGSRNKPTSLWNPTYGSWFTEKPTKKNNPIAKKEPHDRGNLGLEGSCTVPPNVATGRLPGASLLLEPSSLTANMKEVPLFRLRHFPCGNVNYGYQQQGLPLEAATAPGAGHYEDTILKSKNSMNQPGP

[21] = target: T21, MAP3K14 (Homo sapiens, UniProt Q99558); experiment: Proqinase Kinase profiling; assay type: biochemical; conditions: read-out: % inhibition at 100nM
T21 construct: purchased DiscoverX

[22] = target: T22, STK4 (Homo sapiens, UniProt Q13043); experiment: Proqinase Kinase profiling; assay type: biochemical; conditions: read-out: % inhibition at 100nM
T22 construct: purchased DiscoverX
T22 sequence (Q13043 whole entry): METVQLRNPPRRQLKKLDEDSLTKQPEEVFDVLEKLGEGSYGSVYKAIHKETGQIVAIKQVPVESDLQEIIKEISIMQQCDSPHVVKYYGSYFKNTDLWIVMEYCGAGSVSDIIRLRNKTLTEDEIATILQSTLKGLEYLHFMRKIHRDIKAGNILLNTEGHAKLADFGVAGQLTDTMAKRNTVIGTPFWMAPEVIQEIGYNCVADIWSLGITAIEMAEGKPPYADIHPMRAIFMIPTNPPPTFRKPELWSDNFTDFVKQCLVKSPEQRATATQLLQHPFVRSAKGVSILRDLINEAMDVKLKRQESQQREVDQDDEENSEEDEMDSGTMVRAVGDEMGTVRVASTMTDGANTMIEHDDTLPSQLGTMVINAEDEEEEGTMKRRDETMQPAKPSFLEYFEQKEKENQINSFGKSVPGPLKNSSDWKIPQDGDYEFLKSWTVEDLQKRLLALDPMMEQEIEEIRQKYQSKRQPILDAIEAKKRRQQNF

[23] = target: T23, IRAK4 (Homo sapiens, UniProt Q9NWZ3); experiment: Proqinase Kinase profiling; assay type: biochemical; conditions: read-out: % inhibition at 100nM
T23 construct: purchased DiscoverX
T23 sequence (Q9NWZ3 whole entry): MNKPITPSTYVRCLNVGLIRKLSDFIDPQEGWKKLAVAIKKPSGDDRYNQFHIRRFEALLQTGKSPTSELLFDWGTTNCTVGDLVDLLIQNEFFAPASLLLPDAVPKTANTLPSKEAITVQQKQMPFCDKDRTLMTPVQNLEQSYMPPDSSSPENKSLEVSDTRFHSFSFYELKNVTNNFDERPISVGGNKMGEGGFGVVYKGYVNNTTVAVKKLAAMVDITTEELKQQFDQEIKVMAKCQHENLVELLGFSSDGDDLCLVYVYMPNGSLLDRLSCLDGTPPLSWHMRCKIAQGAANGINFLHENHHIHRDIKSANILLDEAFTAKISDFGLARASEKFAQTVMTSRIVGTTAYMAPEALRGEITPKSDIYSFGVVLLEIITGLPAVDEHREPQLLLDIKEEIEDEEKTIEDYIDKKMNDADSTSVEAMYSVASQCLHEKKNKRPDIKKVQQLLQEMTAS

[24] = target: T24, CDK1_cyclinE1 (Homo sapiens, UniProt P06493); experiment: Proqinase Kinase profiling; assay type: biochemical; conditions: read-out: % inhibition at 100nM
T24 construct: purchased DiscoverX

[25] = target: T25, CLK3 (Homo sapiens, UniProt P49761); experiment: Proqinase Kinase profiling; assay type: biochemical; conditions: read-out: % inhibition at 100nM
T25 construct: purchased DiscoverX

[26] = target: T26, DYRK4 (Homo sapiens, UniProt Q9NR20); experiment: Proqinase Kinase profiling; assay type: biochemical; conditions: read-out: % inhibition at 100nM
T26 construct: purchased DiscoverX

[27] = system: BMP-6-induced BRE-LUC reporter activity; experiment: BMP BRE-LUC reporter assay in KS483 cells; assay type: cell-based, mouse; conditions: BMP-6 50 ng/mL 16 hours
Experimental: Compounds were added for 16 hours at 0.5μM before luciferase activity was measured.
For luciferase reporter assays, cells were seeded in 24-well plates and transfected with DharmaFECT Duo (Fisher Scientific, Landsmeer, The Netherlands), following the recommendations of the manufacturer. 48 hours after transfection the cells were harvested and lysed. […] Each transfection mixture was equalized with empty vector when necessary and every experiment was performed in triplicate.

[28] = target: T27, PIM2 (Homo sapiens, UniProt Q9P1W9); experiment: Proqinase Kinase profiling; assay type: biochemical; conditions: read-out: % inhibition at 100nM
T27 construct: purchased DiscoverX

[29] = target: T28, FES (Homo sapiens, UniProt P07332); experiment: Proqinase Kinase profiling; assay type: biochemical; conditions: read-out: % inhibition at 100nM
T28 construct: purchased DiscoverX

[30] = target: T29, CAMK4 (Homo sapiens, UniProt Q16566); experiment: Proqinase Kinase profiling; assay type: biochemical; conditions: read-out: % inhibition at 100nM
T29 construct: purchased DiscoverX

[31] = target: T30, PRKCQ (Homo sapiens, UniProt Q04759); experiment: Proqinase Kinase profiling; assay type: biochemical; conditions: read-out: % inhibition at 100nM
T30 construct: purchased DiscoverX

[32] = target: T31, PDGFRB (Homo sapiens, UniProt P09619); experiment: Proqinase Kinase profiling; assay type: biochemical; conditions: read-out: % inhibition at 100nM
T31 construct: purchased DiscoverX

[33] = target: T32, ABL1_G250E (Homo sapiens, UniProt P00519, G250E); experiment: Proqinase Kinase profiling; assay type: biochemical; conditions: read-out: % inhibition at 100nM
T32 construct: purchased DiscoverX

[34] = target: T33, PDGFRA_D842V (Homo sapiens, UniProt P16234, D842V); experiment: Proqinase Kinase profiling; assay type: biochemical; conditions: read-out: % inhibition at 100nM
T33 construct: purchased DiscoverX

[35] = target: T34, EIF2AK2 (Homo sapiens, UniProt P19525); experiment: Proqinase Kinase profiling; assay type: biochemical; conditions: read-out: % inhibition at 100nM
T34 construct: purchased DiscoverX

[36] = target: T35, FLT1 (Homo sapiens, UniProt P17948); experiment: Proqinase Kinase profiling; assay type: biochemical; conditions: read-out: % inhibition at 100nM
T35 construct: purchased DiscoverX

[37] = target: T36, MELK (Homo sapiens, UniProt Q14680); experiment: Proqinase Kinase profiling; assay type: biochemical; conditions: read-out: % inhibition at 100nM
T36 construct: purchased DiscoverX

[38] = target: T37, PRKCZ (Homo sapiens, UniProt Q05513); experiment: Proqinase Kinase profiling; assay type: biochemical; conditions: read-out: % inhibition at 100nM
T37 construct: purchased DiscoverX

[39] = target: T38, MAP3K2 (Homo sapiens, UniProt Q9Y2U5); experiment: Proqinase Kinase profiling; assay type: biochemical; conditions: read-out: % inhibition at 100nM
T38 construct: purchased DiscoverX

[40] = target: T39, DDR2 (Homo sapiens, UniProt Q16832); experiment: Proqinase Kinase profiling; assay type: biochemical; conditions: read-out: % inhibition at 100nM
T39 construct: purchased DiscoverX

[41] = target: T40, MAPK10 (Homo sapiens, UniProt P53779); experiment: Proqinase Kinase profiling; assay type: biochemical; conditions: read-out: % inhibition at 100nM
T40 construct: purchased DiscoverX

Q: What does the source list for `Clc1cc2cc(c1)-c1cnn3ccc(nc13)NCCOCCO2` [OD36]?
A: inhibition at 0.1 µM [1]: 1%; inhibition at 0.1 µM [2]: 10%; inhibition at 0.1 µM [3]: 31%; inhibition at 0.1 µM [4]: 8%; inhibition at 0.1 µM [5]: 13%; inhibition at 0.1 µM [6]: 28%; inhibition at 0.1 µM [7]: 6%; inhibition at 0.1 µM [8]: 62%; inhibition at 0.1 µM [9]: -7%; inhibition at 0.1 µM [10]: 8%; inhibition at 0.1 µM [11]: 5%; inhibition at 0.1 µM [12]: 49%; inhibition at 0.1 µM [13]: 12%; inhibition at 0.1 µM [14]: 43%; inhibition at 0.1 µM [15]: 10%; inhibition at 0.1 µM [16]: 8%; inhibition at 0.1 µM [17]: 16%; inhibition at 0.1 µM [18]: 4%; inhibition at 0.1 µM [19]: 1%; inhibition at 0.1 µM [20]: 8%; inhibition at 0.1 µM [21]: 10%; inhibition at 0.1 µM [22]: 11%; inhibition at 0.1 µM [23]: 13%; inhibition at 0.1 µM [24]: 8%; inhibition at 0.1 µM [25]: 14%; inhibition at 0.1 µM [26]: 14%; Inhibition of BMP-6-stimulated BRE-LUC reporter activity [27]: in the submicromolar range; inhibition at 0.1 µM [28]: 17%; inhibition at 0.1 µM [29]: 9%; inhibition at 0.1 µM [30]: -4%; inhibition at 0.1 µM [31]: 12%; inhibition at 0.1 µM [32]: 57%; inhibition at 0.1 µM [33]: 5%; inhibition at 0.1 µM [34]: 47%; inhibition at 0.1 µM [35]: 9%; inhibition at 0.1 µM [36]: 20%; inhibition at 0.1 µM [37]: 21%; inhibition at 0.1 µM [38]: -3%; inhibition at 0.1 µM [39]: 7%; inhibition at 0.1 µM [40]: 59%; inhibition at 0.1 µM [41]: 17%

Q: How did the inhibition at 0.1 µM [1] turn out when `Cc1cc2cc(c1)-c1cnn3ccc(nc13)NCCNC(=O)CCN(C)C2` [OD52] was run?
A: -15%

Q: What about the inhibition at 0.1 µM [2] of the same compound?
A: -9%

Q: What about the inhibition at 0.1 µM [3] of the same compound?
A: -5%

Q: What about the inhibition at 0.1 µM [4] of the same compound?
A: 0%

Q: What about the inhibition at 0.1 µM [5] of the same compound?
A: -4%

Q: What about the inhibition at 0.1 µM [6] of the same compound?
A: 28%

Q: And the inhibition at 0.1 µM [7]?
A: 0%

Q: And the inhibition at 0.1 µM [8]?
A: 4%

Q: What about the inhibition at 0.1 µM [9] of the same compound?
A: -6%

Q: And the inhibition at 0.1 µM [10]?
A: -7%

Q: And the inhibition at 0.1 µM [11]?
A: -10%

Q: And the inhibition at 0.1 µM [12]?
A: 22%

Q: And the inhibition at 0.1 µM [13]?
A: -5%

Q: What about the inhibition at 0.1 µM [14] of the same compound?
A: -14%

Q: And the inhibition at 0.1 µM [15]?
A: -1%

Q: What about the inhibition at 0.1 µM [16] of the same compound?
A: -3%

Q: What about the inhibition at 0.1 µM [17] of the same compound?
A: 5%

Q: What about the inhibition at 0.1 µM [18] of the same compound?
A: -7%

Q: And the inhibition at 0.1 µM [19]?
A: -3%

Q: What about the inhibition at 0.1 µM [20] of the same compound?
A: -6%

Q: What about the inhibition at 0.1 µM [21] of the same compound?
A: -23%

Q: And the inhibition at 0.1 µM [22]?
A: 8%

Q: What about the inhibition at 0.1 µM [23] of the same compound?
A: -2%

Q: And the inhibition at 0.1 µM [24]?
A: -2%

Q: What about the inhibition at 0.1 µM [25] of the same compound?
A: 3%

Q: And the inhibition at 0.1 µM [26]?
A: 4%

Q: And the “Inhibition of BMP-6-stimulated BRE-LUC reporter activity” value [27]?
A: in the submicromolar range

Q: What about the inhibition at 0.1 µM [28] of the same compound?
A: 4%

Q: And the inhibition at 0.1 µM [29]?
A: -26%

Q: What about the inhibition at 0.1 µM [30] of the same compound?
A: -23%

Q: What about the inhibition at 0.1 µM [31] of the same compound?
A: -2%

Q: And the inhibition at 0.1 µM [32]?
A: 3%

Q: And the inhibition at 0.1 µM [33]?
A: 6%

Q: And the inhibition at 0.1 µM [34]?
A: 17%

Q: What about the inhibition at 0.1 µM [35] of the same compound?
A: -1%

Q: What about the inhibition at 0.1 µM [36] of the same compound?
A: -4%

Q: And the inhibition at 0.1 µM [37]?
A: 15%

Q: And the inhibition at 0.1 µM [38]?
A: 4%

Q: What about the inhibition at 0.1 µM [39] of the same compound?
A: 14%

Q: And the inhibition at 0.1 µM [40]?
A: 6%

Q: And the inhibition at 0.1 µM [41]?
A: 1%
